Results taken from US20220226342A1, “COMPOSITIONS AND METHODS OF TREATING LIVER CANCERS” (The Johns Hopkins University, priority 2019, published 2022).

Tests used:
HCC 37 = experiment: IC50 in PDO line; assay type: cell-based; conditions: Homo sapiens
Protocol: (§1) The inventors tested omacetaxine at decreasing concentrations (10 μM, 1 μM, 100 nM, 10 nM and 1 nM) to calculate the half-maximal inhibitory concentration (IC50). […] The IC50 value for each of the 40 HCC PDO lines can be found in Table 2.

HCC 83-3 = experiment: IC50 in PDO line; assay type: cell-based; conditions: Homo sapiens
Protocol: as §1

HCC 30 = experiment: IC50 in PDO line; assay type: cell-based; conditions: Homo sapiens
Protocol: as §1

HCC 71-1 = experiment: IC50 in PDO line; assay type: cell-based; conditions: Homo sapiens
Protocol: as §1

HCC 67-3 = experiment: IC50 in PDO line; assay type: cell-based; conditions: Homo sapiens
Protocol: as §1

HCC 83-1 = experiment: IC50 in PDO line; assay type: cell-based; conditions: Homo sapiens
Protocol: as §1

HCC 34-3 = experiment: IC50 in PDO line; assay type: cell-based; conditions: Homo sapiens
Protocol: as §1

HCC 80-2 = experiment: IC50 in PDO line; assay type: cell-based; conditions: Homo sapiens
Protocol: as §1

HCC 25-3 = experiment: IC50 in PDO line; assay type: cell-based; conditions: Homo sapiens
Protocol: as §1

HCC 76 = experiment: IC50 in PDO line; assay type: cell-based; conditions: Homo sapiens
Protocol: as §1

HCC 67-2 = experiment: IC50 in PDO line; assay type: cell-based; conditions: Homo sapiens
Protocol: as §1

HCC 24 = experiment: IC50 in PDO line; assay type: cell-based; conditions: Homo sapiens
Protocol: as §1

HCC 26-4 = experiment: IC50 in PDO line; assay type: cell-based; conditions: Homo sapiens
Protocol: as §1

HCC 57 = experiment: IC50 in PDO line; assay type: cell-based; conditions: Homo sapiens
Protocol: as §1

HCC 80-4 = experiment: IC50 in PDO line; assay type: cell-based; conditions: Homo sapiens
Protocol: as §1

HCC 25-2 = experiment: IC50 in PDO line; assay type: cell-based; conditions: Homo sapiens
Protocol: as §1

HCC 71-4 = experiment: IC50 in PDO line; assay type: cell-based; conditions: Homo sapiens
Protocol: as §1

HCC 40 = experiment: IC50 in PDO line; assay type: cell-based; conditions: Homo sapiens
Protocol: as §1

HCC 36-3 = experiment: IC50 in PDO line; assay type: cell-based; conditions: Homo sapiens
Protocol: as §1

HCC 26-3 = experiment: IC50 in PDO line; assay type: cell-based; conditions: Homo sapiens
Protocol: as §1

HCC 83-2 = experiment: IC50 in PDO line; assay type: cell-based; conditions: Homo sapiens
Protocol: as §1

HCC 80-5 = experiment: IC50 in PDO line; assay type: cell-based; conditions: Homo sapiens
Protocol: as §1

HCC 59 = experiment: IC50 in PDO line; assay type: cell-based; conditions: Homo sapiens
Protocol: as §1

HCC 65-3 = experiment: IC50 in PDO line; assay type: cell-based; conditions: Homo sapiens
Protocol: as §1

HCC 26-7 = experiment: IC50 in PDO line; assay type: cell-based; conditions: Homo sapiens
Protocol: as §1

HCC 25-1 = experiment: IC50 in PDO line; assay type: cell-based; conditions: Homo sapiens
Protocol: as §1

HCC 80-1 = experiment: IC50 in PDO line; assay type: cell-based; conditions: Homo sapiens
Protocol: as §1

HCC 26-6 = experiment: IC50 in PDO line; assay type: cell-based; conditions: Homo sapiens
Protocol: as §1

HCC 77 = experiment: IC50 in PDO line; assay type: cell-based; conditions: Homo sapiens
Protocol: as §1

HCC71-3 = experiment: IC50 in PDO line; assay type: cell-based; conditions: Homo sapiens
Protocol: as §1

HCC 35 = experiment: IC50 in PDO line; assay type: cell-based; conditions: Homo sapiens
Protocol: as §1

HCC 26-2 = experiment: IC50 in PDO line; assay type: cell-based; conditions: Homo sapiens
Protocol: as §1

HCC 71-2 = experiment: IC50 in PDO line; assay type: cell-based; conditions: Homo sapiens
Protocol: as §1

HCC 80-3 = experiment: IC50 in PDO line; assay type: cell-based; conditions: Homo sapiens
Protocol: as §1

HCC 65-2 = experiment: IC50 in PDO line; assay type: cell-based; conditions: Homo sapiens
Protocol: as §1

[1] = system: global protein synthesis in 6 HCC PDOs; experiment: OP-Puro incorporation assay (EZClick Global Protein Synthesis Assay); assay type: cell-based, human
Excerpt: FIG. 3A-3H. Mechanism of Omacetaxine action on different HCC patient derived organoids lines. (3A). […] (3B). […] (3C) The mean fluorescence intensity ratio reflected protein synthesis rate of the plots data in (a). (3D-3H).

26-3 PDX = experiment: Ki67 immunofluorescent staining of PDX tumor frozen sections; assay type: in vivo, NSG mice; conditions: omacetaxine treated HCC PDX tumors vs matched controls
Excerpt: (§2) FIG. 8A-8G. Omacetaxine inhibits tumor cell proliferation and increases apoptosis and suppressed HCC oncoprotein expression in vivo. (8A-8D) Immunofluorescent staining of Ki67 and cleaved caspase 3 expression in 26-3 PDX model. 8A-8B show the IF staining pictures, 8C-8D show the relative Ki67 or cleaved caspase 3 positive cell number in omacetaxine treated mice compared with control treatment groups. (8E-8G) Omacetaxine suppressed HCC oncoprotein: c-Myc, Beta-catenin and MET protein expression in 50 HCC PDX treated with Omacetaxine vs control.
To verify the mechanism of omacetaxine target HCC mechanism in vivo, omacetaxine treated HCC PDX tumors, as well as matched controls, were harvested, and frozen section slides were made. […] The difference in apoptosis as well as proliferation was statistically significant (FIGS. 8C and 8D).

c-Myc = experiment: oncoprotein staining of HCC PDX tumor frozen sections; assay type: in vivo, human; conditions: HCC PDX tumor (50 HCC PDX) vs control
Excerpt: as §2
(§3) Tumor masses from HCC PDX mice treated with omacetaxine and negative control, respectively, were utilized to prepare frozen sections, which were then stained for the c-Myc, MET and beta-catenin.

MET = experiment: as above; assay type: in vivo, human; conditions: HCC PDX tumor (50 HCC PDX) vs control
Excerpt: as §2, §3

beta-catenin = experiment: as above; assay type: in vivo, human; conditions: HCC PDX tumor (50 HCC PDX) vs control
Excerpt: as §2, §3

COC(=O)C[C@](O)(CCCC(C)(C)O)C(=O)O[C@@H]1C(OC)=C[C@]23CCCN2CCc2cc4c(cc2[C@H]13)OCO4 [omacetaxine, omacetaxine mepusuccinate]
IC50 (HCC 37): 3.52 nM | IC50 (HCC 83-3): 8.85 nM | IC50 (HCC 30): 50.6 nM | IC50 (HCC 71-1): 7.29 nM | IC50 (HCC 67-3): 1.67 nM | IC50 (HCC 83-1): 17.7 nM | IC50 (HCC 34-3): 37.7 nM | IC50 (HCC 80-2): 44 nM | IC50 (HCC 25-3): 60.1 nM | IC50 (HCC 76): 35.5 nM | IC50 (HCC 67-2): 12.8 nM | IC50 (HCC 24): 148 nM | IC50 (HCC 26-4): 33.5 nM | IC50 (HCC 57): 14.1 nM | IC50 (HCC 80-4): 3.18 nM | IC50 (HCC 25-2): 11.7 nM | IC50 (HCC 71-4): 9.98 nM | IC50 (HCC 40): 15.8 nM | IC50 (HCC 36-3): 80.7 nM | IC50 (HCC 26-3): 27.8 nM | IC50 (HCC 83-2): 19.2 nM | IC50 (HCC 80-5): 27.6 nM | IC50 (HCC 59): 21.2 nM | IC50 (HCC 65-3): 2.26 nM | IC50 (HCC 26-7): 1.41 nM | IC50 (HCC 25-1): 37.4 nM | IC50 (HCC 80-1): 80.1 nM | IC50 (HCC 26-6): 80.8 nM | IC50 (HCC 77): 46.1 nM | IC50 (HCC71-3): 1.51 nM | IC50 (HCC 35): 13.1 nM | IC50 (HCC 26-2): 118 nM | IC50 (HCC 71-2): 2.05 nM | IC50 (HCC 80-3): 15.7 nM | IC50 (HCC 65-2): 7.4 nM | global protein synthesis ([1]; 150 nM and 700 nM, 6 HCC PDOs, 36 h): drastically inhibited global protein synthesis | protein synthesis inhibition at 700 nM compared with 150 nM ([1]; 700 nM vs 150 nM): did not induce any further inhibition of protein synthesis | proliferation as measured by Ki67 protein expression (26-3 PDX): less | c-Myc expression in vivo (c-Myc): downregulated | MET expression in vivo (MET): downregulated | beta-catenin expression in vivo (beta-catenin): downregulated
